The values below come from patent US10478437B2, “Combination therapy to enhance the anticancer efficacy of platinum drugs” (University of Pittsburgh-of the Commonwealth System of …, priority 2014, dated 2019).

This experiment has as its system cisplatin-resistant ovarian cancer cell line A2780cis. Kind of experiment: Caspase-3/7 activity assay (apoptotic cell death), compound alone or with cisplatin. To be noted: for caspase-3/7 activity (Lum), compound with cisplatin / caspase-3/7 activity (Lum), compound alone: 20 h; for caspase-3/7 activity (Lum), compound alone: compound 20 μM; for activity in the screen (Caspase-3/7 activity and microscopic examination), active / inactive: alone or in the presence of cisplatin, in words. The experiment is classed as cell-based, human. On the procedure:
Cell proliferation was determined using a CyQUANT Direct Cell Proliferation Assay kit (Invitrogen), the activity of caspase-3/7 was measured using a Caspase-Glo 3/7 Assay Systems (Promega, Madison, Wis.), and the MTS calorimetric survival assay was performed using the CellTiter 96 AQueous One Solution Cell Proliferation Assay kit (Promega, Madison, Wis.), according to the manufacturer's instructions. The survival fractions were calculated after setting untreated control cells at 100%. The data were plotted and curve fitted using GraphPad Prism software. To quantify the number of cells with active caspase-3, cells were fixed with 4% paraformaldehyde (Electron microscopy sciences, Hatfield, Pa.), stained with Alexa Fluor-488 conjugated antibody against cleaved caspase-3 (Asp175) (Cell Signaling Technology, Danvers, Mass.) followed by flow cytometry. An FITC Annexin V Apoptosis Detection Kit (BD PharMingen, San Diego, Calif.) was used to quantify apoptotic cells, according to the manufacturer's instructions.
A Caspase-3/7 assay was performed to evaluate the activity of the 36 compounds of FIG. 1 in vitro in the cisplatin-resistant ovarian cancer cell line, A2780cis, alone or in the presence of cisplatin. A microscopic examination of apoptotic morphologic changes was also carried out right before the measurement of Caspase-3/7 activity, in order to confirm that the data on the activation of the Caspase-3/7 following treatment is consistent with morphological change and reflects cell death.

Where [1] appears, read: Table 1, compound 20 μM with 20 μM cisplatin.
Where [2] appears, read: Table 1, mean ± S.D. of triplicates.
The mark [3] stands for this setting: Table 3, compound 20 μM with 20 μM of cisplatin.

For the compound `Cc1ccc(-c2csc3[nH]c(=S)n(-c4ccccc4)c(=O)c23)o1` [Compound 1-1], the “activity in the screen (Caspase-3/7 activity and microscopic examination), active / inactive” value (shortened to “activity in the screen … active / inactive”) is “inactive”. For the same compound, under setting [1], the “caspase-3/7 activity (Lum), compound with cisplatin” value came out at 28 ± 1 Lum. Besides, the “caspase-3/7 activity (Lum), compound alone” value under setting [2] worked out at 12 ± 1 Lum.
For `CC1CCc2c(sc3[nH]c(=S)n(Cc4ccccc4)c(=O)c23)C1` (centres unmarked) [Compound 1-2], in that order: “inactive”, 25 ± 3 Lum and 12 ± 1 Lum.
In the same order, the values of `C=CCn1c(=S)[nH]c2scc(-c3ccc(C)c(C)c3)c2c1=O` [Compound 1-3] are “inactive”, 28 ± 2 Lum and 12 ± 1 Lum.
For `CN(C)CCn1c(=S)[nH]c2ccc(Cl)cc2c1=O` [Compound 1-5], the “caspase-3/7 activity (Lum), compound with cisplatin” value under setting [1] was 32 ± 1 Lum. Moreover, the “caspase-3/7 activity (Lum), compound alone” value under setting [2] came to 13 ± 1 Lum.
In the same order, the values of `Cc1cccc2c(=O)n(CCN(C)C)c(=S)[nH]c12` [Compound 1-7] are 20 ± 3 Lum and 12 ± 2 Lum.
For `O=C(CCn1c(=S)[nH]c2ccccc2c1=O)N1CCOCC1` [Compound 1-9], in that order: 23 ± 1 Lum and 13 ± 1 Lum.
For `Cc1[nH]c(=S)[nH]c(=O)c1CCC(=O)N1CCOCC1` [Compound 1-10], in that order: 21 ± 2 Lum and 14 ± 1 Lum.
For `Cc1[nH]c(=S)[nH]c(=O)c1CCC(=O)NCCc1c[nH]c2ccccc12` [Compound 1-11], the “caspase-3/7 activity (Lum), compound with cisplatin” value under setting [1] was determined as 18 ± 2 Lum. Under setting [2], the “caspase-3/7 activity (Lum), compound alone” value is on record as 12 ± 1 Lum.
In the same order, the values of `CC1CCN(CCCn2c(=S)[nH]c3ccccc3c2=O)CC1` [Compound 1-12] are 23 ± 3 Lum and 10 ± 1 Lum.
In the same order, the values of `O=C(CCn1c(=S)[nH]c2ccccc2c1=O)NCC1(c2ccccc2)CCCC1` [Compound 1-13] are 35 ± 3 Lum and 14 ± 1 Lum.
In the same order, the values of `O=C(CCCCCn1c(=S)[nH]c2ccccc2c1=O)NCc1ccc2c(c1)OCO2` [Compound 1-14] are 22 ± 2 Lum and 11 ± 1 Lum.
On to `C=CCn1c(=S)[nH]c2scc(-c3ccc(Oc4ccccc4)cc3)c2c1=O` [Compound 1-15], for which the “activity in the screen … active / inactive” value is “inactive”. Also, under setting [1], the “caspase-3/7 activity (Lum), compound with cisplatin” value is listed as 28 ± 3 Lum. Under setting [2], the “caspase-3/7 activity (Lum), compound alone” value came out at 12 ± 2 Lum.
Take `COCCCn1c(=S)[nH]c2cc(C(=O)Nc3ccc(F)c(F)c3)ccc2c1=O` [Compound 1-16]: under setting [1], the “caspase-3/7 activity (Lum), compound with cisplatin” value is reported as 18 ± 3 Lum. For the same compound, the “caspase-3/7 activity (Lum), compound alone” value under setting [2] was found to be 10 ± 1 Lum.
For `O=C(CCn1c(=O)[nH]c2ccccc2c1=O)NCCCOc1ccc(F)cc1` [Compound 1-18], in that order: 19 ± 3 Lum and 12 ± 1 Lum.
In the same order, the values of `COc1ccccc1Cn1c(=S)[nH]c2ccccc2c1=O` [Compound 1-20] are 39 ± 3 Lum and 13 ± 1 Lum.
`C=CCn1c(=S)[nH]c2cc(C(=O)Nc3cc(OC)c(OC)c(OC)c3)ccc2c1=O` [Compound 1-22]: the “caspase-3/7 activity (Lum), compound with cisplatin” value under setting [1] is 25 ± 2 Lum. In addition, the “caspase-3/7 activity (Lum), compound alone” value under setting [2] came out at 16 ± 1 Lum.
For the compound `CN(Cc1ccc(Cl)c(Cl)c1)C(=O)CCn1c(=O)[nH]c(=O)c2ccccc21` [Compound 1-23], the “caspase-3/7 activity (Lum), compound with cisplatin” value under setting [1] was 27 ± 1 Lum. In addition, the “caspase-3/7 activity (Lum), compound alone” value under setting [2] is reported as 15 ± 1 Lum.
With `CC(C)CC(NC(=O)Cn1c(=O)[nH]c(=O)c2ccccc21)c1ccccc1` (centres unmarked) [Compound 1-25], under setting [1], the “caspase-3/7 activity (Lum), compound with cisplatin” value is 33 ± 2 Lum. The “caspase-3/7 activity (Lum), compound alone” value under setting [2] stood at 15 ± 1 Lum.
Turning to `N#Cc1c(-c2ccc(Br)cc2)[nH]c(=S)[nH]c1=O` [Compound 1-26], the “caspase-3/7 activity (Lum), compound with cisplatin” value under setting [1] is given as 26 ± 1 Lum. For the same compound, the “caspase-3/7 activity (Lum), compound alone” value under setting [2] turned out to be 14 ± 3 Lum.
Regarding `CC(C)(C)C1CCc2c(sc3[nH]c(=S)n(Cc4ccccc4)c(=O)c23)C1` (centres unmarked) [Compound 1-27], the “activity in the screen … active / inactive” value is “inactive”. In addition, the “caspase-3/7 activity (Lum), compound with cisplatin” value under setting [1] was found to be 40 ± 5 Lum. In addition, the “caspase-3/7 activity (Lum), compound alone” value under setting [2] turned out to be 23 ± 2 Lum.
On to `Nn1c(=S)[nH]c2ccccc2c1=O` [Compound 1-28], for which the “caspase-3/7 activity (Lum), compound with cisplatin” value under setting [1] is on record as 22 ± 2 Lum. For the same compound, the “caspase-3/7 activity (Lum), compound alone” value under setting [2] was 15 ± 1 Lum.
In the same order, the values of `CC(=O)Nn1c(=S)[nH]c2ccccc2c1=O` [Compound 1-29] are 23 ± 1 Lum and 15 ± 2 Lum.
In the same order, the values of `CCN(CC)CCn1c(=O)[nH]c2ccccc2c1=O` [Compound 1-31] are 26 ± 4 Lum and 12 ± 1 Lum.
In the same order, the values of `O=c1[nH]c2ccccc2c(=O)n1CCCN1CCOCC1` [Compound 1-32] are 20 ± 1 Lum and 13 ± 1 Lum.
As for `O=c1[nH]c2ccccc2c(=O)n1CCc1ccccc1` [Compound 1-33], the “caspase-3/7 activity (Lum), compound with cisplatin” value under setting [1] was 16 ± 1 Lum. The “caspase-3/7 activity (Lum), compound alone” value under setting [2] is listed as 10 ± 1 Lum.
For `CCOC(=O)c1ccccc1NC(=O)c1c(O)[nH]c(=S)[nH]c1=O` [Compound 1-34], in that order: 22 ± 3 Lum and 12 ± 1 Lum.
In the same order, the values of `O=C(Nc1ccccc1)c1c(O)[nH]c(=S)[nH]c1=O` [Compound 1-35] are 5 ± 1 Lum and 2 ± 1 Lum.
In the same order, the values of `CCCCn1c(=S)[nH]c2cc(C(=O)OC)ccc2c1=O` [Compound 1-36] are 47 ± 3 Lum and 16 ± 2 Lum.
As to `Cc1cccnc1NC(=S)NC(=O)c1cccs1` [Compound 2-2], the “caspase-3/7 activity (Lum), compound with cisplatin” value under setting [3] stood at 25 ± 1 Lum. Further, the “caspase-3/7 activity (Lum), compound alone” value (Table 3) is recorded as 9 ± 1 Lum.
Consider `O=C(NC(=S)Nc1ccccc1N1CCOCC1)c1ccco1` [Compound 2-3], for which the “caspase-3/7 activity (Lum), compound with cisplatin” value under setting [3] was determined as 20 ± 1 Lum. Also, for the setting “Table 3”, the “caspase-3/7 activity (Lum), compound alone” value is recorded as 8 ± 1 Lum.
For `O=C(NC(=S)Nc1ccccc1N1CCCC1)c1cccs1` [Compound 2-4], in that order: 18 ± 1 Lum and 8 ± 1 Lum.
In the same order, the values of `COc1ccc(C=C2C(=O)NC(=S)NC2=O)c(OC)c1` [Compound 2-6] are 22 ± 1 Lum and 7 ± 1 Lum.
Take `O=C(NC(=S)Nc1ccccc1)c1ccc(Br)o1` [Compound 2-8]: under setting [3], the “caspase-3/7 activity (Lum), compound with cisplatin” value came out at 20 ± 2 Lum. For the same compound, the “caspase-3/7 activity (Lum), compound alone” value (Table 3) is listed as 7 ± 2 Lum.
